Reference: PubChem BioAssay AID720512 (Broad Institute, 2013)
Calls of active or inactive are those of the source. No rule for the calls is given here.

Target: Toxin B (TcdB) glycohydrolase, Clostridioides difficile 630
Assay: TcdB glycohydrolase inhibitors, dose response, biochemical, cherry-pick, plate reader (AID 720512)
Details: recombinant TcdB glycohydrolase activity

`CCOc1ccc2c(C)nc(NC3=NC(C)(C)C=C(C)N3)nc2c1` was tested, and the “activity change, negative = inhibition” value (at 19.5 µM (top of the series)) was “inactive”.
For `CCOC(=O)c1ccc2ncc(-c3ccccc3)nc2c1`, the “activity change, negative = inhibition” value (at 19.5 µM (top of the series)) was “inactive”.
With `CC(Sc1nc(N)cc(=O)[nH]1)C(=O)NCC(=O)Nc1ccc(F)c(F)c1F` (configuration not stated) the “activity change, negative = inhibition” value (at 19.5 µM (top of the series)) was “inactive”.
In the case of `O=C(COc1cccc(C(F)(F)F)c1)N1CCN(c2ccc(O)cc2)CC1`, the “activity change, negative = inhibition” value (at 10 µM (top of the series)) is reported as “inactive”.
For `Cc1c(C(=O)c2ccccc2)c2ccccn2c1CCc1ccccn1`, the “activity change, negative = inhibition” value (at 19.5 µM (top of the series)) was “inactive”.
`Cc1ccc2c(c1)/C(=C/c1ccccc1C)C(=O)N2` was tested, and the “activity change, negative = inhibition” value (at 19.5 µM (top of the series)) was “inactive”.
`CN1C(=O)NC(c2ccc(O)cc2)C2=C1CN(c1ccc(O)cc1)C2=O` (configuration not stated) was tested, and the “activity change, negative = inhibition” value (at 19.5 µM (top of the series)) was “inactive”.
For `O=C(NN=Cc1cc(Br)c(O)c(Br)c1)c1ccccc1NS(=O)(=O)c1cccs1`, the “activity change, negative = inhibition” value (at 19.5 µM (top of the series)) was “inactive”.
`CC1(C)Cc2nc(Cl)c(C#N)cc2CO1` was tested, and the “activity change, negative = inhibition” value (at 19.5 µM (top of the series)) was “inactive”.
With `COC(=O)C(C(=O)OC)C(CC(=O)c1ccc(Br)cc1)c1ccccc1` (configuration not stated) the “activity change, negative = inhibition” value (at 19.5 µM (top of the series)) was “inactive”.
With `CNC(=O)C1CCN(S(=O)(=O)c2c(C)noc2/C=C/c2ccc(OC)cc2)CC1` the “activity change, negative = inhibition” value (at 19.5 µM (top of the series)) was “inactive”.
With `O=C(NCc1nnc2c(C(F)(F)F)cc(Cl)cn12)c1cccnc1` the “activity change, negative = inhibition” value (at 19.5 µM (top of the series)) was “inactive”.
In the case of `Cc1ccc(C(=O)Nc2ccc(O)cc2C(=O)O)cc1C`, the “activity change, negative = inhibition” value (at 19.5 µM (top of the series)) is reported as “inactive”.
In the case of `O=C(C[C@@H]1CC[C@H]2[C@@H](COC[C@@H](O)CN2Cc2ccc(Oc3ccccc3)cc2)O1)Nc1nccs1`, the “activity change, negative = inhibition” value (at 19.5 µM (top of the series)) is reported as “inactive”.
With `CNC(C(=O)c1ccccc1)C(OC)c1cccc([N+](=O)[O-])c1` (configuration not stated) the “activity change, negative = inhibition” value (at 19.5 µM (top of the series)) was “inactive”.
In the case of `O=C(C[C@@H]1CC[C@@H]2[C@H](COC[C@H](O)CN2C(=O)c2ccccn2)O1)NC1CCC1`, the “activity change, negative = inhibition” value (at 19.5 µM (top of the series)) is reported as “inactive”.
In the case of `COc1cccc2cc(/C(C)=N/NC(=O)c3ccco3)oc12`, the “activity change, negative = inhibition” value (at 19.5 µM (top of the series)) is reported as “inactive”.
`Oc1cc(O)cc(/C=C/c2ccc(O)c(O)c2)c1` was tested, and the “activity change, negative = inhibition” value (at 19.5 µM (top of the series)) was “inactive”.
`Cc1ccc(Cc2c(-c3ccc(C)cc3)nc3ccc(Cl)cn23)cc1` was tested, and the “activity change, negative = inhibition” value (at 19.5 µM (top of the series)) was “inactive”.
In the case of `NNC(=O)CNC(=O)Nc1n[nH]c(=S)s1`, the “activity change, negative = inhibition” value (at 19.5 µM (top of the series)) is reported as “inactive”.
With `Nc1ccc(OCCCc2c(N)nc(N)nc2N)cc1` the AC50 was > 39 µM (inactive).
For `CC[n+]1ccc(/C=C/c2ccc(N(C)C)cc2)c2ccccc21`, the “activity change, negative = inhibition” value (at 19.5 µM (top of the series)) was “inactive”.
With `COc1ccc(S(=O)(=O)N2CCOCC2)cc1NC(=O)COC(=O)c1[nH]c(C)c(C(C)=O)c1C` the “activity change, negative = inhibition” value (at 19.5 µM (top of the series)) was “inactive”.
For `C=CCN=c1scc(C)n1/N=C/c1ccc(O)c(O)c1`, the “activity change, negative = inhibition” value (at 19.5 µM (top of the series)) was “inactive”.
`Cc1cc(C(=O)NNc2ccc(C)c(C)c2)no1` was tested, and the AC50 was 2.24 µM.
For `Cn1c(=O)c2c(nc(N3CCOCC3)n2CCSc2ncccn2)n(C)c1=O`, the “activity change, negative = inhibition” value (at 19.5 µM (top of the series)) was “inactive”.
`COc1cc(/C=N/NC(=O)C2(O)c3ccccc3-c3ccccc32)ccc1O` was tested, and the “activity change, negative = inhibition” value (at 19.5 µM (top of the series)) was “inactive”.
In the case of `S=c1[nH]nc2ccccn12`, the “activity change, negative = inhibition” value (at 19.5 µM (top of the series)) is reported as “inactive”.
`COc1ccc(CNC(=O)C2CCN(S(=O)(=O)c3c(C)noc3/C=C/N(C)C)CC2)cc1` was tested, and the “activity change, negative = inhibition” value (at 19.5 µM (top of the series)) was “inactive”.
With `O=c1c2oc3nc4c(cc3c2ncn1CCCc1ccccc1)CCCC4` the “activity change, negative = inhibition” value (at 19.5 µM (top of the series)) was “inactive”.
`COc1ccc(NC(=O)c2cc(C)nc3ccccc23)c(OC)c1` was tested, and the “activity change, negative = inhibition” value (at 19.5 µM (top of the series)) was “inactive”.
`CCN(C(=O)COC(=O)c1cccnc1SC)C1CCCCC1` was tested, and the “activity change, negative = inhibition” value (at 19.5 µM (top of the series)) was “inactive”.
With `O=C(C[C@@H]1C[C@@H]2c3cc(NC(=O)c4ccc5c(c4)OCO5)ccc3O[C@@H]2[C@@H](CO)O1)NCc1cccc(F)c1` the “activity change, negative = inhibition” value (at 19.5 µM (top of the series)) was “inactive”.
`CCOC(=O)N1CCN(C(=S)NC(=O)c2ccc(F)c(F)c2)CC1` was tested, and the “activity change, negative = inhibition” value (at 19.5 µM (top of the series)) was “inactive”.
In the case of `Cc1ccc(SCCC(=O)N/N=C/c2cccnc2)cc1`, the “activity change, negative = inhibition” value (at 19.5 µM (top of the series)) is reported as “inactive”.
`CC[C@H](C)[C@H]1CNC(=S)N1CC1CCN(CCCC2CCCC2)CC1` was tested, and the “activity change, negative = inhibition” value (at 19.5 µM (top of the series)) was “inactive”.
`O=[N+]([O-])c1c(Nc2ccccc2O)ccc2nonc12` was tested, and the “activity change, negative = inhibition” value (at 19.5 µM (top of the series)) was “inactive”.
In the case of `CC1(C)CC(=O)C(C=Nc2ccc(O)cc2)=C(O)C1`, the “activity change, negative = inhibition” value (at 19.5 µM (top of the series)) is reported as “inactive”.
For `Cc1ccc(NNC(=O)c2ccno2)cc1Cl`, the “activity change, negative = inhibition” value (at 19.5 µM (top of the series)) was “inactive”.
`Nc1ccc2nc(-c3cccs3)[nH]c2c1` was tested, and the AC50 was > 39 µM (inactive).
With `Cc1cccn2c(=S)[nH]nc12` the “activity change, negative = inhibition” value (at 19.5 µM (top of the series)) was “inactive”.
For `CCCNC(=O)Nc1ccc2c(c1)C(=O)N(C)[C@@H]1CC[C@H](CC(=O)NC3CCC3)O[C@H]1CO2`, the “activity change, negative = inhibition” value (at 19.5 µM (top of the series)) was “inactive”.
In the case of `CCc1ccc(Nc2n[n+](-c3ccccc3)c(-c3ccc(OC)c(Br)c3)s2)cc1`, the “activity change, negative = inhibition” value (at 19.5 µM (top of the series)) is reported as “inactive”.
`CNC(=O)C[C@H]1CC[C@@H]2[C@H](COc3ccc(NC(=O)c4ccc(OC)cc4)cc3C(=O)N2C)O1` was tested, and the “activity change, negative = inhibition” value (at 19.5 µM (top of the series)) was “inactive”.
In the case of `Oc1ccc(/C=N/N2CCN(Cc3ccccc3)CC2)cc1`, the AC50 is reported as > 39 µM (inactive).
In the case of `Cc1nc2ccccn2c1-c1ccnn1S(=O)(=O)c1ccc(F)cc1`, the “activity change, negative = inhibition” value (at 19.5 µM (top of the series)) is reported as “inactive”.
`CC(Oc1ccc(Cl)cc1Cl)C(=O)Nc1ccc(O)cc1` (configuration not stated) was tested, and the “activity change, negative = inhibition” value (at 19.5 µM (top of the series)) was “inactive”.
`CCC(=O)N1CC[C@@H]2[C@H]1c1cc(-c3ccc(OC)cc3)ccc1N(C)[C@H]2CO` was tested, and the AC50 was > 42 µM (inactive).
In the case of `Cc1cc(C(C)(C)C)cc(CN2CCN(S(=O)(=O)c3cccs3)CC2)c1O`, the “activity change, negative = inhibition” value (at 19.5 µM (top of the series)) is reported as “inactive”.
For `CN1C(=O)C(c2nnc(Nc3cccc4ccccc34)s2)C2CC1(C)Oc1ccccc12` (configuration not stated), the “activity change, negative = inhibition” value (at 19.5 µM (top of the series)) was “inactive”.
`COc1ccc(CC(=O)C2C(=O)N(C)c3ccccc32)cc1OC` (configuration not stated) was tested, and the “activity change, negative = inhibition” value (at 19.5 µM (top of the series)) was “inactive”.
In the case of `CC(=O)Nc1ccc(S(=O)(=O)N2CCCC(C(=O)O)C2)cc1` (configuration not stated), the “activity change, negative = inhibition” value (at 19.5 µM (top of the series)) is reported as “inactive”.
`CC(C)(Oc1ccc(Cl)cc1)C(=O)NC1CC1` was tested, and the “activity change, negative = inhibition” value (at 19.5 µM (top of the series)) was “inactive”.
For `CCS(=O)(=O)c1ccc2oc(Nc3ccc(C(C)(C)C)cc3)nc2c1`, the “activity change, negative = inhibition” value (at 19.5 µM (top of the series)) was “inactive”.
For `O=C(Nc1ccccc1F)N(Cc1ccc(F)cc1)Cc1nc2ccccc2c(=O)[nH]1`, the “activity change, negative = inhibition” value (at 19.5 µM (top of the series)) was “inactive”.
In the case of `CN1CC(=O)N/C1=N\C(=O)Nc1ccc(O)cc1`, the “activity change, negative = inhibition” value (at 19.5 µM (top of the series)) is reported as “inactive”.
`COc1ccc(CC(=O)NNC(=S)NC(=O)c2cccnc2)cc1` was tested, and the “activity change, negative = inhibition” value (at 19.5 µM (top of the series)) was “inactive”.
In the case of `COCCCNC(=O)C1CCN(S(=O)(=O)c2c(C)noc2/C=C\c2ccc(OC)cc2)CC1`, the “activity change, negative = inhibition” value (at 19.5 µM (top of the series)) is reported as “inactive”.
For `O=C(NNc1nc2c(F)cc(F)cc2s1)C1COc2ccccc2O1` (configuration not stated), the “activity change, negative = inhibition” value (at 19.5 µM (top of the series)) was “inactive”.
`O=C(C[C@H]1CC[C@@H]2[C@H](COC[C@@H](O)CN2C(=O)Nc2ccc(Cl)c(Cl)c2)O1)NCc1ccncc1` was tested, and the “activity change, negative = inhibition” value (at 19.5 µM (top of the series)) was “inactive”.
`COc1cccc(C(=O)Nc2ccc3c(c2)C(=O)N(C)[C@@H]2CC[C@H](CC(=O)NCCCN4CCOCC4)O[C@@H]2CO3)c1` was tested, and the “activity change, negative = inhibition” value (at 19.5 µM (top of the series)) was “inactive”.
`O=c1[nH]c(/C=C\c2ccc(O)cc2)nc(O)c1[N+](=O)[O-]` was tested, and the “activity change, negative = inhibition” value (at 19.5 µM (top of the series)) was “inactive”.
`Nc1ccc(-c2nc3ccc(N)cc3o2)cc1` was tested, and the “activity change, negative = inhibition” value (at 19.5 µM (top of the series)) was “inactive”.
In the case of `S=c1[nH]nc(-c2ccccn2)n1/N=C/c1ccc(Cl)cc1`, the “activity change, negative = inhibition” value (at 19.5 µM (top of the series)) is reported as “inactive”.
In the case of `O=c1[nH]c(CN2CCOCC2)nc2cc(Cl)ccc12`, the “activity change, negative = inhibition” value (at 19.5 µM (top of the series)) is reported as “inactive”.
With `OCC1CCCN(C(=S)Nc2ccc(Nc3ccccc3)cc2)C1` (configuration not stated) the “activity change, negative = inhibition” value (at 19.5 µM (top of the series)) was “inactive”.
With `COc1cc(/C=C/C(=O)c2ccc([N+](=O)[O-])o2)ccc1O` the “activity change, negative = inhibition” value (at 19.5 µM (top of the series)) was “inactive”.
